Experimental findings from the Deep4Chem optical property database are described below.

Values joined by “and” are separate entries in the source; they are usually repeats but may differ in a detail not shown here. Equal entries are not always repeated.

The nature of the series: photoluminescence quantum yield (fraction); solvent given as SMILES.

As to `CC1=[N+]2C(=C(c3c4ccccc4cc4ccccc34)c3ccc(C)n3[B-]2(F)F)C=C1`, the photoluminescence quantum yield was found to be 0.002 (in C1CCOC1); 0.002 (in CC#N); 0.005 (in CCO); 0.003 (in CN(C)C=O); 0.001 (in CO); 0.002 (in CS(C)=O). Moreover, the photoluminescence quantum yield by setting is: (in Cc1ccccc1) 0.29; (in ClC(Cl)Cl) 0.01 and 0.004.

In the case of `CC1(C)C(/C=C/C2=C(Cl)C(=C/C=C3/N(Cc4ccc(F)cc4)c4ccccc4C3(C)C)/CCC2)=[N+](Cc2ccc(F)cc2)c2ccccc21`, the photoluminescence quantum yield (in CCO) is 0.148.

Consider `CN(C)c1ccc2nc(-c3ccc(C=C4C(=O)c5ccccc5C4=O)cc3)sc2c1`, for which the photoluminescence quantum yield is 0.13 (in C1CCCCC1), 0 (in CC#N), 0 (in CO) and 0.35 (in ClC(Cl)Cl).

With `O=[N+]([O-])c1ccc(-c2nc(/C=C/c3ccc(Cl)cc3)c(/C=C/c3ccc(Cl)cc3)[nH]2)cc1`, the photoluminescence quantum yield (in ClCCl) stood at 0.

Regarding `CC(C)CCC[C@@H](C)[C@H]1CC[C@H]2[C@@H]3CC=C4C[C@@H](OC(=O)Oc5cc(/C=C/c6ccc(N(C)C)cc6)ccc5[N+](=O)[O-])CC[C@]4(C)[C@H]3CC[C@]12C`, the photoluminescence quantum yield amounted to 0.29 (in C1CCCCC1), 0.09 (in C1COCCO1), 0.29 (in CCCCCCC) and 0.18 (in Cc1ccccc1).

`Cc1ccc2c(c1)nnn2-c1c(C#N)c2c(N)ncnc2n1[C@H]1C[C@H](O)[C@@H](CO)O1`: for the setting “in CO”, the photoluminescence quantum yield was found to be 0.007.

Regarding `CCC1=C(C)C2=C(C)c3c(I)c(I)cn3[B-](F)(F)[N+]2=C1C`, the photoluminescence quantum yield reads like this: (in C1CCCCC1) 0.05; (in CC(C)=O) 0.024; (in CCO) 0.021; (in CCOC(C)=O) 0.031; (in CO) 0.02; (in OCC(F)(F)F) 0.019.

In turn, `N#Cc1c(C#N)c2ccccc2c2ccccc12` yielded a photoluminescence quantum yield (in ClC(Cl)Cl) of 0.17.

With `CCCCCCCCCCCCN1C(=O)c2c(c3ccc4cc(-c5cccs5)c(OC)cc4c3c3c2ccc2cc(-c4cccs4)c(OC)cc23)C1=O`, the photoluminescence quantum yield (in ClCCl) is 0.216.

For `CC(C)=CCN1C(=O)c2cccc3c2c(cc2oc(C)nc23)C1=O`, the photoluminescence quantum yield (in CCO) came to 0.011.

Compound `COc1ccc(C#Cc2c(C#Cc3ccc(OC)cc3)c(C#Cc3ccc(OC)cc3)c(C#Cc3ccc(OC)cc3)c(C#Cc3ccc(OC)cc3)c2C#Cc2ccc(OC)cc2)cc1` yielded a photoluminescence quantum yield (in ClCCl) of 0.55.

The compound `C1=Cc2ccc3ccccc3c2NB1c1ccccc1` gave a photoluminescence quantum yield (in C1CCCCC1) of 0.57.

In the case of `c1ccc(C2=C(c3ccccc3)c3cccc4c3c(cc3nc5c(-c6ccccc6)ccc(-c6ccccc6)c5nc34)O2)cc1`, the photoluminescence quantum yield (in ClCCl) worked out at 0.23.

Where the note is “in CO”, `Oc1ccc(-c2nc(-c3ccccc3)c(-c3ccccc3)[nH]2)cc1` gave a photoluminescence quantum yield of 0.18.

On to `O[Si](c1c2ccccc2cc2ccccc12)(c1c2ccccc2cc2ccccc12)c1c2ccccc2cc2ccccc12`, for which the photoluminescence quantum yield (in ClC(Cl)Cl) worked out at 0.015.

The compound `N#Cc1c(/C=C/c2ccc(N(c3ccccc3)c3ccccc3)cc2)cc(-c2cccs2)cc1N1CCCCC1` gave a photoluminescence quantum yield (in CS(C)=O) of 0.53.

With `Cc1cc(/N=C/c2cc(S(=O)(=O)[O][Na])ccc2O)c(/N=C/c2cc(S(=O)(=O)[O][Na])ccc2O)cc1C`, for the setting “in O”, the photoluminescence quantum yield was 0.56.

As for `O=C1NC(=O)C(c2c[nH]c3ccccc23)=C1c1c[nH]c2ccccc12`, the photoluminescence quantum yield runs as follows: (in C1CCOC1) 0.24; (in CC#N) 0.1; (in CC(C)OC(C)C) 0.28; (in CCCCOCCCC) 0.22; (in CCO) 0.003; (in CCOC(C)=O) 0.21. In addition, the photoluminescence quantum yield reads like this: (in CN(C)C=O) 0.13; (in Cc1ccccc1) 0.28; (in ClCCl) 0.21.
